AC50 data for 25 compounds are collected here from US20230365592A1 (Agios Pharmaceuticals, Inc., priority 2022, published 2023).

Structures are written as SMILES.

The target in the assay is T1, human PAH with the R408W mutation (Homo sapiens, UniProt P00439, R408W).
T1 construct: expressed in transfected cells
T1 sequence (P00439 1-452 R408W): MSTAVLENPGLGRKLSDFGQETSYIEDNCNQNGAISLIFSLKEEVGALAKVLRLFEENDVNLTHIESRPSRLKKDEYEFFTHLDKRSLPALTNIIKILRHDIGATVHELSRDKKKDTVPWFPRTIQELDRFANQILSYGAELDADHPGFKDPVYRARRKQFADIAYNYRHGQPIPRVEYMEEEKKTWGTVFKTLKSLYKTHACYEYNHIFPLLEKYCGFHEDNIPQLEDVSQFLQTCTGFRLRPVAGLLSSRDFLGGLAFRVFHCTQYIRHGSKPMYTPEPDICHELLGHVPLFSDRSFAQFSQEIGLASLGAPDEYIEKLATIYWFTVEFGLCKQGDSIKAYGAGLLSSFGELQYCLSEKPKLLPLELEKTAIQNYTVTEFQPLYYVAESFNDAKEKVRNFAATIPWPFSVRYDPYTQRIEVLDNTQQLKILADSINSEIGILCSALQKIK
Briefly: Cell Based Phenylalanine Flux Assay.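 Note: after compound treatment, cells received sepiapterin plus isotope-labelled Phenylalanine for 4 hours, then labelled Tyrosine in the medium was quantified, 10-point 2-fold dilution series run in duplicate.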 Particulars: A375 cells expressing human R408W PAH; 24 hrs compound incubation; 13C-Tyrosine by LC-MS; average where tested multiple times; read-out: AC50.

Usually AC50 stands for the concentration at which the activity in the assay is half-maximal. Turning to `Cn1nc(Cl)nc1C(=O)N1CCc2[nH]cnc2[C@@H]1c1cc2c(Cl)cccn2n1` [Example 1055, (R)-(3-chloro-1-methyl-1H-1,2,4-triazol-5-yl)(4-(4-chloropyrazolo[1,5-a]pyridin-2-yl)-6,7-dihydro-1H-imidazo[4,5-c]pyridin-5(4H)-yl)methanone], the AC50 was 1 to 5 µM.
As for `Cc1cccn2nc([C@@H]3c4nc[nH]c4CCN3C(=O)c3nc(C(F)(F)F)nn3C)cc12` [Example 1056, (S)-(1-methyl-3-(trifluoromethyl)-1H-1,2,4-triazol-5-yl)(4-(4-methylpyrazolo[1,5-a]pyridin-2-yl)-6,7-dihydro-1H-imidazo[4,5-c]pyridin-5(4H)-yl)methanone], the AC50 was less than 0.5 µM.
With `Cc1cccn2nc([C@H]3c4nc[nH]c4CCN3C(=O)c3nc(C(F)(F)F)nn3C)cc12` [Example 1057, (R)-(1-methyl-3-(trifluoromethyl)-1H-1,2,4-triazol-5-yl)(4-(4-methylpyrazolo[1,5-a]pyridin-2-yl)-6,7-dihydro-1H-imidazo[4,5-c]pyridin-5(4H)-yl)methanone] the figure was more than 5 µM.
In the case of `Cc1cccn2nc([C@@H]3c4nc[nH]c4CCN3C(=O)c3nc(C4CC4)nn3C)cc12` [Example 1058, (S)-(3-cyclopropyl-1-methyl-1H-1,2,4-triazol-5-yl)(4-(4-methylpyrazolo[1,5-a]pyridin-2-yl)-6,7-dihydro-1H-imidazo[4,5-c)pyridin-5(4H)-yl)methanone], the AC50 is 0.5 to 1 µM.
With `Cn1nc(C(F)F)nc1C(=O)N1CCc2[nH]cnc2[C@H]1c1cc2c(C(F)(F)F)cccn2n1` [Example 1060, (S)-(3-(difluoromethyl)-1-methyl-1H-1,2,4-triazol-5-yl)(4-(4-(trifluoromethyl)pyrazolo[1,5-a]pyridin-2-yl)-6,7-dihydro-1H-imidazo[4,5-c]pyridin-5(4H)-yl)methanone] the figure was less than 0.5 µM; with `O=C(c1ccnn1C(F)F)N1CCc2[nH]cnc2[C@H]1c1cc2cccc(Cl)n2n1` [Example 1064, (S)-(4-(7-chloropyrazolo[1,5-a]pyridin-2-yl)-6,7-dihydro-1H-imidazo[4,5-c]pyridin-5(4H)-yl)(1-(difluoromethyl)-1H-pyrazol-5-yl)methanone], 0.5 to 1 µM; with `Cn1cc(-c2nnc(C(=O)N3CCc4[nH]cnc4[C@H]3c3cc4cccc(Cl)n4n3)o2)cn1` [Example 1066, (S)-(4-(7-chloropyrazolo[1,5-a]pyridin-2-yl)-6,7-dihydro-1H-imidazo[4,5-c]pyridin-5(4H)-yl)(5-(1-methyl-1H-pyrazol-4-yl)-1,3,4-oxadiazol-2-yl)methanone], less than 0.5 µM.
Regarding `O=C(c1ocnc1C(F)F)N1CCc2[nH]cnc2[C@H]1c1cc2ccc(F)cn2n1` [Example 1068, (S)-(4-(difluoromethyl)oxazol-5-yl)(4-(6-fluoropyrazolo[1,5-a]pyridin-2-yl)-6,7-dihydro-1H-imidazo[4,5-c]pyridin-5(4H)-yl)methanone], the AC50 is less than 0.5 µM.
`O=C(c1ocnc1C(F)F)N1CCc2[nH]cnc2[C@@H]1c1cc2ccc(F)cn2n1` [Example 1069, (R)-(4-(difluoromethyl)oxazol-5-yl)(4-(6-fluoropyrazolo[1,5-a]pyridin-2-yl)-6,7-dihydro-1H-imidazo[4,5-c]pyridin-5(4H)-yl)methanone]: the concentration at half-maximal activity (AC50) fell in the range of 1 to 5 µM.
For the compound `CC(C)(O)c1nc(C(F)F)c(C(=O)N2CCc3[nH]cnc3[C@H]2c2cc3ccc(F)cn3n2)o1` [Example 1070, (S)-(4-(difluoromethyl)-2-(2-hydroxypropan-2-yl)oxazol-5-yl)(4-(6-fluoropyrazolo[1,5-a]pyridin-2-yl)-6,7-dihydro-1H-imidazo[4,5-c]pyridin-5(4H)-yl)methanone], the AC50 was less than 0.5 µM.
Take `CC(C)(O)c1nc(C(F)F)c(C(=O)N2CCc3[nH]cnc3[C@@H]2c2cc3ccc(F)cn3n2)o1` [Example 1071, (R)-(4-(difluoromethyl)-2-(2-hydroxypropan-2-yl)oxazol-5-yl)(4-(6-fluoropyrazolo[1,5-a]pyridin-2-yl)-6,7-dihydro-1H-imidazo[4,5-c]pyridin-5(4H)-yl)methanone]: the half-maximal activity concentration (AC50) is more than 5 µM.
With `Cn1nc(C2CC2)nc1C(=O)N1CCc2[nH]cnc2[C@H]1c1cc2c(Cl)cccn2n1` [Example 1072, (S)-(4-(4-chloropyrazolo[1,5-a]pyridin-2-yl)-6,7-dihydro-1H-imidazo[4,5-c]pyridin-5(4H)-yl)(3-cyclopropyl-1-methyl-1H-1,2,4-triazol-5-yl)methanone], the half-maximal activity concentration (AC50) lay in the range of 0.5 to 1 µM.
In the case of `Cc1cccn2nc([C@@H]3c4nc[nH]c4CCN3C(=O)c3nc(Cl)nn3C)cc12` [Example 1076, (S)-(3-chloro-1-methyl-1H-1,2,4-triazol-5-yl)(4-(4-methylpyrazolo[1,5-a]pyridin-2-yl)-6,7-dihydro-1H-imidazo[4,5-c]pyridin-5(4H)-yl)methanone], the concentration at half-maximal activity (AC50) was less than 0.5 µM.
`Cn1nc(Cl)nc1C(=O)N1CCc2[nH]cnc2[C@H]1c1cc2c(C(F)(F)F)cccn2n1` [Example 1078, (S)-(3-chloro-1-methyl-1H-1,2,4-triazol-5-yl)(4-(4-(trifluoromethyl)pyrazolo[1,5-a]pyridin-2-yl)-6,7-dihydro-1H-imidazo[4,5-c]pyridin-5(4H)-yl)methanone]: the concentration at half-maximal activity (AC50) was less than 0.5 µM.
Consider `Cn1nc(C2CC2)nc1C(=O)N1CCc2[nH]cnc2[C@H]1c1cc2c(C(F)(F)F)cccn2n1` [Example 1081, (S)-(3-cyclopropyl-1-methyl-1H-1,2,4-triazol-5-yl)(4-(4-(trifluoromethyl)pyrazolo[1,5-a]pyridin-2-yl)-6,7-dihydro-1H-imidazo[4,5-c]pyridin-5(4H)-yl)methanone], for which the AC50 was less than 0.5 µM.
Regarding `Cc1nc(C(=O)N2CCc3[nH]cnc3[C@H]2c2cc3c(C(F)(F)F)cccn3n2)n(C)n1` [Example 1082, (S)-(1,3-dimethyl-1H-1,2,4-triazol-5-yl)(4-(4-(trifluoromethyl)pyrazolo[1,5-a]pyridin-2-yl)-6,7-dihydro-1H-imidazo[4,5-c]pyridin-5(4H)-yl)methanone], the AC50 is less than 0.5 µM.
With `CC(C)(O)c1nc(C(F)F)c(C(=O)N2CCc3[nH]cnc3[C@H]2c2cc3cc(F)ccn3n2)o1` [Example 1084, (S)-(4-(difluoromethyl)-2-(2-hydroxypropan-2-yl)oxazol-5-yl)(4-(5-fluoropyrazolo[1,5-a]pyridin-2-yl)-6,7-dihydro-1H-imidazo[4,5-c]pyridin-5(4H)-yl)methanone] the figure was less than 0.5 µM; with `CC(C)(O)c1nc(C(F)F)c(C(=O)N2CCc3[nH]cnc3[C@@H]2c2cc3cc(F)ccn3n2)o1` [Example 1085, (R)-(4-(difluoromethyl)-2-(2-hydroxypropan-2-yl)oxazol-5-yl)(4-(5-fluoropyrazolo[1,5-a]pyridin-2-yl)-6,7-dihydro-1H-imidazo[4,5-c]pyridin-5(4H)-yl)methanone], 1 to 5 µM; with `Cc1cccc2cc([C@@H]3c4nc[nH]c4CCN3C(=O)c3nc(Cl)nn3C)nn12` [Example 1086, (S)-(3-chloro-1-methyl-1H-1,2,4-triazol-5-yl)(4-(7-methylpyrazolo[1,5-a]pyridin-2-yl)-6,7-dihydro-1H-imidazo[4,5-c]pyridin-5(4H)-yl)methanone], less than 0.5 µM.
As for `O=C(c1ccnn1C(F)F)N1CCc2[nH]cnc2[C@H]1c1cc2ccc(F)cn2n1` [Example 1088, (S)-(1-(difluoromethyl)-1H-pyrazol-5-yl)(4-(6-fluoropyrazolo[1,5-a]pyridin-2-yl)-6,7-dihydro-1H-imidazo[4,5-c]pyridin-5(4H)-yl)methanone], the figure is 0.5 to 1 µM; as for `O=C(c1ccnn1C(F)F)N1CCc2[nH]cnc2[C@@H]1c1cc2ccc(F)cn2n1` [Example 1089, (R)-(1-(difluoromethyl)-1H-pyrazol-5-yl)(4-(6-fluoropyrazolo[1,5-a]pyridin-2-yl)-6,7-dihydro-1H-imidazo[4,5-c]pyridin-5(4H)-yl)methanone], more than 5 µM; as for `O=C(c1nnc(-c2ccccn2)o1)N1CCc2[nH]cnc2[C@H]1c1cc2ccc(F)cn2n1` [Example 1090, (S)-(4-(6-fluoropyrazolo[1,5-a]pyridin-2-yl)-6,7-dihydro-1H-imidazo[4,5-c]pyridin-5(4H)-yl)(5-(pyridin-2-yl)-1,3,4-oxadiazol-2-yl)methanone], 0.5 to 1 µM.
On to `O=C(c1nnc(-c2ccccn2)o1)N1CCc2[nH]cnc2[C@@H]1c1cc2ccc(F)cn2n1` [Example 1091, (R)-(4-(6-fluoropyrazolo[1,5-a]pyridin-2-yl)-6,7-dihydro-1H-imidazo[4,5-c]pyridin-5(4H)-yl)(5-(pyridin-2-yl)-1,3,4-oxadiazol-2-yl)methanone], for which the AC50 is more than 5 µM.
For `O=C(c1ccnn1C(F)F)N1CCc2[nH]cnc2[C@H]1c1cc2cc(F)ccn2n1` [Example 1092, (S)-(1-(difluoromethyl)-1H-pyrazol-5-yl)(4-(5-fluoropyrazolo[1,5-a]pyridin-2-yl)-6,7-dihydro-1H-imidazo[4,5-c]pyridin-5(4H)-yl)methanone], the concentration at half-maximal activity (AC50) is 0.5 to 1 µM.
For `O=C(c1ccnn1C(F)F)N1CCc2[nH]cnc2[C@@H]1c1cc2cc(F)ccn2n1` [Example 1093, (R)-(1-(difluoromethyl)-1H-pyrazol-5-yl)(4-(5-fluoropyrazolo[1,5-a]pyridin-2-yl)-6,7-dihydro-1H-imidazo[4,5-c]pyridin-5(4H)-yl)methanone], the AC50 fell in the range of 1 to 5 µM.
